The record followed here is patent US7985424B2, “Dendritic polymers with enhanced amplification and interior functionality” (Dendritic Nanotechnologies Inc., priority 2004, dated 2011).

For series [1], the system named is HEK 293 cells. The experiment in a line: Membrane permeation of FITC-conjugated PEHAM dendrimer (fluorescence microscopy). In kind it is cell-based, human. Conditions: monitored at 2, 5 and 24 hours, FIG. 13.
Description: Fluorescence microscopy and phase contrast microscopy studies were performed using a Nikon Diaphot™ TMD microscope equipped with Nikon™ TMD-EF for fluorescence, along with a Nikon™ CoolPix 990 digital camera to capture the results.
HEK 293 cells were plated at 40% confluency in a 96-well plate (Becton Dickinson) in MEM (Fisher), containing 10% FBS (ISC BioExpress). […] Control wells included G=1 PEHAM dendrimer and FITC dye alone, at equivalent concentrations. The cells were incubated with the conjugate for 24 hours, with monitoring via fluorescence microscopy at 2, 5, and 24 hours. Prior to examination under the microscope, the cells to be analyzed were rinsed 2 times with PBS.
The nature of series [2]: Proton relaxivity analysis (variable field T1-T2 analyzer). In kind it is physicochemical. The following applies: Table IV; field strength varied from 1-64 MHz. How it is done: Relaxivity analysis was performed using a variable field T1-T2 analyzer. The field strength was varied from 1-64 MHz.
The Gd(III) content of the solutions was determined on a sequential, radially viewed Varian™ Liberty Series II ICPOES inductively coupled plasma optical emission spectrophotometer (Anderson Analytical, TX). Relaxivity analysis was performed using a variable field T1-T2 analyzer (University of Pittsburgh). The field strength was varied from 1-64 MHz. […] Relaxivity values for DTPA-Gd(III)-encapsulated dendrimers were similar to free DTPA-Gd(III).

For the molecule fluorescein isothiocyanate [FITC], the “membrane permeation / intracellular fluorescence” value in series [1] was “no intracellular fluorescence”.
As for `O=C([O-])CN(CCN(CC(=O)[O-])CC(=O)O)CCN(CC(=O)[O-])CC(=O)O.[Gd+3]` [DTPA-Gd, diethylenetriaminepentaacetic acid, gadolinium(III)], the Relaxivity (r1) in series [2] was 4.2 mM⁻¹ s⁻¹.
